# Assay results reported in ChEMBL document CHEMBL1127241, “Taxol photoaffinity labels 2. Synthesis and biological evaluation of N-(4-azidobenzoyl)-N-debenzoyltaxol, N-(4-azido-2,3,5,6-tetrafluorobenzoyl)-N-debenzoyltaxol, and 7-(4-azido-2,3,5,6-tetrafluorobenzoyl)taxol” (1994).
# Experiments:
# B16 = test: Concentration which produces 50% inhibition of proliferation of B16 melanoma cells after 40 hr incubation expressed as ED50 ratio relative to taxol; assay type: functional, Mus musculus
# [1] = target: Tubulin alpha chain (Sus scrofa) (UniProt P02550); test: Concentration which causes polymerization of 50% of the tubulin present in 15 min at 37 degree Celsius (stimulation of microtubule assembly) expressed as ED50 ratio relative to taxol; assay type: functional
# Tubulin alpha chain (Sus scrofa), sequence (P02550 whole entry, looked up): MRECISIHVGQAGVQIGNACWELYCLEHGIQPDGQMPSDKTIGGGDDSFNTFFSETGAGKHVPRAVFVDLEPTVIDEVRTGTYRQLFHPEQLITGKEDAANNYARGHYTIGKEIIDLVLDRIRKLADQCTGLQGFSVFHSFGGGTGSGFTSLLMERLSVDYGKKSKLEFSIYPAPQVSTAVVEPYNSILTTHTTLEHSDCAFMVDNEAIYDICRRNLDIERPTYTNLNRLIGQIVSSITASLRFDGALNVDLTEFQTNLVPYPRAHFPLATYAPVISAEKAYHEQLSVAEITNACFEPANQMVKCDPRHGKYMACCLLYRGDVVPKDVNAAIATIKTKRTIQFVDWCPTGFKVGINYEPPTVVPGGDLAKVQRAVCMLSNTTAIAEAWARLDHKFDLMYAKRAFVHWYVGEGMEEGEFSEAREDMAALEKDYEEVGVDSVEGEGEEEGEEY
smiles,measurement,setting,value
CC(=O)O[C@H]1C(=O)[C@@]2(C)[C@H]([C@H](OC(=O)c3ccccc3)[C@]3(O)C[C@H](OC(=O)[C@H](O)[C@@H](NC(=O)c4ccc(N=[N+]=[N-])cc4)c4ccccc4)C(C)=C1C3(C)C)[C@]1(OC(C)=O)CO[C@@H]1C[C@@H]2O,ED50 ratio,B16,4.6
same,ED50 ratio,[1],2
CC(=O)O[C@H]1C(=O)[C@]2(C)[C@@H](OC(=O)c3c(F)c(F)c(N=[N+]=[N-])c(F)c3F)C[C@H]3OC[C@@]3(OC(C)=O)[C@H]2[C@H](OC(=O)c2ccccc2)[C@]2(O)C[C@H](OC(=O)[C@H](O)[C@@H](NC(=O)c3ccccc3)c3ccccc3)C(C)=C1C2(C)C,ED50 ratio,[1],> 22.4
CC(=O)O[C@H]1C(=O)[C@]2(C)[C@@H](OC(=O)c3ccc(N=[N+]=[N-])cc3)C[C@H]3OC[C@@]3(OC(C)=O)[C@H]2[C@H](OC(=O)c2ccccc2)[C@]2(O)C[C@H](OC(=O)[C@H](O)[C@@H](NC(=O)c3ccccc3)c3ccccc3)C(C)=C1C2(C)C,ED50 ratio,B16,30
same,ED50 ratio,[1],21.4
CC(=O)O[C@H]1C(=O)[C@@]2(C)[C@H]([C@H](OC(=O)c3ccccc3)[C@]3(O)C[C@H](OC(=O)[C@H](O)[C@@H](NC(=O)c4c(F)c(F)c(N=[N+]=[N-])c(F)c4F)c4ccccc4)C(C)=C1C3(C)C)[C@]1(OC(C)=O)CO[C@@H]1C[C@@H]2O,ED50 ratio,B16,14.8
same,ED50 ratio,[1],4.6
